Experiments:
Assay type in all cases: cell-based
[1] = tested on: normal human dermal fibroblasts; test: Neosynthesis of sulphated GAGs ([35S]-sulphate incorporation) in dermal fibroblasts; conditions: monolayer of normal human dermal fibroblasts
Experimental: The effects of this compound were evaluated on a monolayer of normal human dermal fibroblasts by measuring the neosynthesis of glycosaminoglycans designated as sulphated GAGs (incorporation of [^35S]-sulphate). […] This might explain the effect of dermal reinforcement already observed on skin explants ex vivo.

[2] = tested on: normal human epidermal keratinocytes; test: Differential expression PCR arrays (RT-qPCR) of keratinocyte differentiation markers; conditions: 10 μM
Experimental: The expression of the specific markers was evaluated by RT-qPCR (reverse transcription quantitative polymerase chain reaction) on messenger RNAs extracted from the cell lawns from each treatment. The transcriptomic profile contains 64 genes selected for their importance in keratinocyte differentiation. The PCR reactions (polymerase chain reactions) were carried out by quantitative PCR with the “Light Cycler” system (Roche Molecular System Inc.) according to the procedures recommended by the supplier. Normal human epidermal keratinocytes were incubated in the presence of compound 1 or a reference with calcium chloride. The expression of the specific markers was evaluated by RT-qPCR on the messenger RNAs extracted from the cell lawns from each treatment.

B16 melanocytes = test: Cell viability, MTT reduction test
Experimental: The melanocytes were seeded in a 96-well plate and were cultured for 24 h (37° C., 5% CO2, DMEM 1 g/L glucose without phenol red supplemented with glucose at 3 g/L, L-glutamine at 2 mM, penicillin at 50 U/mL, streptomycin at 50 μg/mL, foetal calf serum (FCS) at 10%). After incubation, the culture medium was then replaced with culture medium supplemented or not supplemented (unstimulated control) with a stable derivative of α-MSH and containing or not containing (controls) the test compounds or the reference (kojic acid at 25, 100, 400, 800 μg/mL). Each experiment was carried out with n=3, apart from the controls carried out with n=6, then the cells were incubated for 72 h. Wells without cells received in parallel the same quantities of medium supplemented or not supplemented with NDP-MSH and containing or not containing the test compounds or the reference in order to quantify the background noise associated with the presence of the compounds. At the end of the treatment, the cells were incubated in the presence of MTT (tetrazolium salt), the transformation of which to blue crystals of formazan is proportional to the activity of succinate dehydrogenase (mitochondrial enzyme). After dissociation of the cells, the formazan was dissolved in DMSO medium and the optical density (OD), representative of the number of living cells and of their metabolic reactivity, was measured with a microplate reader at 540 nm (VERSAmax, Molecular Devices). The operating conditions are the same as in Example 12.

Question: With `Oc1ccccc1CCOc1ccc(F)cc1` [Compound 1, 2-[2-(4-fluoro-phenoxy)-ethyl]-phenol] as the compound, how does the “Neosynthesis of sulphated GAGs” value [1] read?
Answer: stimulated the neosynthesis of sulphated GAGs, in a non-concentration-dependent fashion

Question: And the “Effect on keratinocyte differentiation (conclusion)” value [2]?
Answer: pro-differentiating effect

Question: And the “Stimulation of expression of markers involved in lipid synthesis, antimicrobial defence, innate immunity and cell-cell interactions” value ([2]; compared with calcium chloride at 1.5 mM)?
Answer: less, but similar to calcium chloride at 1.5 mM

Question: And the “Viability (MTT) % stimulated control” value (B16 melanocytes; 10 μM, B16, 72 h, Table 2)?
Answer: 83%

Question: What about the “Viability (MTT) % stimulated control” value (B16 melanocytes; 30 μM, B16, 72 h, Table 2) of the same compound?
Answer: 86%

Question: And the “Viability (MTT) % stimulated control” value (B16 melanocytes; 30 μM, comparison with 2 reference molecules, Table 3)?
Answer: 85%

Question: What about the “Viability (MTT) % stimulated control” value (B16 melanocytes; 100 μM, B16, 72 h, Table 2) of the same compound?
Answer: 22%

Question: And the “Viability (MTT) % stimulated control” value (B16 melanocytes; 100 μM, comparison with 2 reference molecules, Table 3)?
Answer: 13%
